Here are results for 15 compounds from US10689394B2, “Thieno[2,3-b]pyridine derivative, quinoline derivative, and use thereof” (The University of Tokyo, priority 2016, dated 2020).

The experiment deals with T1, binding between ALS-related mutant SOD1 (Flag-SOD1 G93A) and Derlin-1 (Derlin-1-HA) (Homo sapiens, UniProt P00441+Q9BUN8, G94A).
T1 construct: expressed in transfected cells; host or cells: HEK293A
T1 sequence (P00441 whole entry G94A, species assumed): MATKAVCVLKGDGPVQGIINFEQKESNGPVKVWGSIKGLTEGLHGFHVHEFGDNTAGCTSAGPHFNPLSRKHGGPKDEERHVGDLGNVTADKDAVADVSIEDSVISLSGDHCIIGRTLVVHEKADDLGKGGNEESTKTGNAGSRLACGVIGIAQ
T1 sequence (Q9BUN8 whole entry, species assumed, stated change not applied): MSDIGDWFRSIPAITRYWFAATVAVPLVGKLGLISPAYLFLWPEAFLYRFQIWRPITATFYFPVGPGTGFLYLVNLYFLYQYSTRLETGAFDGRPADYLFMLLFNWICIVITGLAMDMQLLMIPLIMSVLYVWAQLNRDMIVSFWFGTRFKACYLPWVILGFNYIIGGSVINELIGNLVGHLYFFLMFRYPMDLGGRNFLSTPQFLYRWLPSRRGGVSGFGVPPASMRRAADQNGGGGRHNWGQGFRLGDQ
The experiment in a line: Cell-based co-immunoprecipitation assay of mutant SOD1 (G93A)-Derlin-1 binding. Particulars: assay concentration 20 μM; HEK293A cells overexpressing Flag-SOD1 G93A and Derlin-1-HA. Further details: key to Activity value (score): a compound exhibiting no inhibitory activity is set at 0; a compound exhibiting inhibitory activity is set at 1; a compound exhibiting significant inhibitory activity is set at 2; a compound having higher inhibitory activity than the compound of Example 1 is set at 3. As for the experimental part: As cells, human embryonic kidney-derived, Human Embryonic Kidney 293A (HEK293A) cells were used. The cells were cultured in High Glucose Dulbecco's modified Eagle's medium (DMEM: 4.5 mg/ml glucose, Sigma) supplemented with complement-inactivated 10% fetal bovine serum (FBS, Vitromex) and 100 units/mL Penicillin G (Meiji), which was placed in an incubator set at conditions of 37° C. and 5% CO2.
Transfection into the HEK293A cells was carried out using PEI-Max (Polyscience) at a ratio of 3 μL of PEI-Max to 1 μg of plasmid. DMEM was mixed with PEI-Max, and the mixture was then left at rest for 5 minutes. Thereafter, the reaction mixture was added to the plasmid DNA dissolved in DMEM, and the thus obtained mixture was further left at rest for 15 minutes. After seeding, the culture was carried out for 12 to 24 hours, and the resultant was then added to a culture medium of cells, in which the medium had been exchanged with DMEM supplemented only with 10% FBS.
pcDNA3.0-Derlin-1-HA, pcDNA3.0-Flag-SOD1 G93A, and 123 types of other mutants.
In the lysis of HEK293A cells for use in a co-immunoprecipitation experiment, an IP lysis buffer (20 mM Tris-HCl (pH 7.5), 150 mM NaCl, 10 mM EDTA (pH 8.0), 1% Triton-X 100, 5 μg/mL leupeptin, and 1 mM phenylmethylsulfonyl fluoride) was used.
After the transfection on a 24-well plate, the cells were cultured for 12 hours or 24 hours, and the obtained cell culture was exchanged with 200 μL of medium. Thereafter, 1% DMSO or various types of compounds having each different concentration were added into the culture. Thirty-six hours or twenty-four hours later, the cells were incubated in the IP lysis buffer (300 μL/well) at 4° C. for 25 minutes, so that the cells were lysed. The cell lysate was centrifuged at 4° C. at 15000 rpm for 10 minutes, and a supernatant was then recovered. To this supernatant, Anti-Flag M2 affinity gel was added in a liquid amount of 20 μL, and they were allowed to react with each other by subjecting the obtained mixture to inversion mixing at 4° C. for 25 minutes. After completion of the reaction, a supernatant was removed, and the residue was washed twice with High salt wash buffer (1% Triton X 100, 500 mM NaCl, 20 mM Tris-HCl (pH 7.5), and 5 mM EGTA), and was then washed once with Low salt wash buffer (150 mM NaCl, 20 mM Tris-HCl (pH 7.5), and 5 mM EGTA). Finally, 50 μL of a 2×SDS sample buffer was added to the resultant, and the obtained mixture was then boiled at 98° C. for 3 minutes to obtain an SDS-PAGE sample. Regarding the lysate, a 2×SDS sample buffer was added in an amount equal to the supernatant, and the obtained mixture was then boiled at 98° C. for 3 minutes to obtain an SDS-PAGE sample.
After completion of SDS-PAGE, a protein was transferred from the gel into a polyvinylidene difluoride membrane (PVDF) ([…], Pall), and was then blocked with TBS-T (150 mM NaCl, 50 mM Tris-HCl (pH 8.0), and 0.05% Tween 20) supplemented with 5% skimmed milk at room temperature for 2 hours or more. Thereafter, a primary antibody diluted with TBS-T supplemented with 5% bovine serum albumin and 0.1% NaN3 was allowed to bind to each molecule on the PVDF membrane at 4° C. for 12 hours or more. After completion of the reaction, a secondary antibody (HRP-linked 2nd antibody) diluted with TBS-T supplemented with 5% skimmed milk was allowed to bind to the primary antibody at room temperature for 1 hour. Thereafter, the resultant was washed with TBS-T for 15 minutes, 3 or more times, and detection was then carried out using an enhanced chemiluminescence (ECL) system.
With regard to the compounds of the present invention (Example Compound 1 to Example Compound 47), whether or not the present compound can inhibit the binding between ALS-related mutant SOD1 and Derlin-1 in a cell by being added into a cell culture solution was examined according to a co-immunoprecipitation experiment. […]
`Nc1c(C(=O)Nc2ccc(OCc3ccccc3)cc2)sc2nc(-c3cccnc3)ccc12` [Example 26, 3-amino-N-[4-(benzyloxy)phenyl]-6-(3-pyridinyl)thieno[2,3-b]pyridine-2-carboxamide]: the “Activity value (score)” value is listed as 1.

Turning to `Nc1c(C(=O)Nc2ccc(I)cc2)sc2nc(-c3cccnc3)ccc12` [Example 27, 3-amino-N-(4-iodophenyl)-6-(3-pyridinyl)thieno[2,3-b]pyridine-2-carboxamide], the “Activity value (score)” value was determined as 1. Regarding `Nc1c(C(=O)Nc2ccc(C(F)(F)F)cc2)sc2nc(-c3cccnc3)ccc12` [Example 29, 3-amino-6-(3-pyridinyl)-N-(4-(trifluoromethyl)phenyl)thieno[2,3-b]pyridine-2-carboxamide], the “Activity value (score)” value is listed as 1.

Regarding `Nc1c(C(=O)Nc2ccc(-c3cc(C(F)(F)F)cc(C(F)(F)F)c3)cc2)sc2nc(-c3cccnc3)ccc12` [Example 30, 3-amino-N-(3′,5′-bis(trifluoromethyl)-[1,1′-biphenyl]-4-yl)-6-(3-pyridinyl)thieno[2,3-b]pyridine-2-carboxamide], the “Activity value (score)” value is recorded as 1. Regarding `Nc1c(C(=O)Nc2cccc(C(F)(F)F)c2)sc2nc(-c3ccncc3)ccc12` [Example 31, 3-amino-6-(4-pyridinyl)-N-(3-(trifluoromethyl)phenyl)thieno[2,3-b]pyridine-2-carboxamide], the “Activity value (score)” value amounted to 1. As to `Nc1c(C(=O)Nc2ccncc2)sc2nc(-c3ccncc3)ccc12` [Example 32, 3-amino-N-(4-pyridinyl)-6-(4-pyridinyl)thieno[2,3-b]pyridine-2-carboxamide], the “Activity value (score)” value is 1.

With `Nc1c(C(=O)Nc2ccncc2)sc2nc(-c3cncnc3)ccc12` [Example 33, 3-amino-N-(4-pyridinyl)-6-(5-pyrimidinyl)thieno[2,3-b]pyridine-2-carboxamide], the “Activity value (score)” value is 1.

`C=C(C)CN(C(=O)c1sc2nc(-c3cccnc3)ccc2c1N)c1ccc(F)cc1` [Example 34, 3-amino-N-(4-fluorophenyl)-N-(2-methylprop-2-en-1-yl)-6-(3-pyridinyl)thieno[2,3-b]pyridine-2-carboxamide]: the “Activity value (score)” value was determined as 1. To `C#CCN(C(=O)c1sc2nc(-c3cccnc3)ccc2c1N)c1ccc(F)cc1` [Example 35, 3-amino-N-(4-fluorophenyl)-N-(prop-2-yn-1-yl)-6-(3-pyridinyl)thieno[2,3-b]pyridine-2-carboxamide] belongs 1; to `C#CCOC/C=C\CN(C(=O)c1sc2nc(-c3cccnc3)ccc2c1N)c1ccccc1` [Example 36], 1; to `Nc1c(C(=O)N(Cc2ccccc2)c2ccccc2)sc2nc(-c3cccnc3)ccc12` [Example 37, 3-amino-N-benzyl-N-phenyl-6-(3-pyridinyl)thieno[2,3-b]pyridine-2-carboxamide], 2.

On to `CC(C)=CCN(C(=O)c1sc2nc(-c3cccnc3)ccc2c1N)c1ccncc1` [Example 39, 3-amino-N-prenyl-N-(4-pyridinyl)-6-(3-pyridinyl)thieno[2,3-b]pyridine-2-carboxamide], for which the “Activity value (score)” value came to 1. As to `Nc1c(C(=O)N(CC=C2CCCC2)c2ccccc2)sc2nc(-c3cccnc3)ccc12` [Example 40, 3-amino-N-(2-cyclopentylideneethyl)-N-phenyl-6-(3-pyridinyl)thieno[2,3-b]pyridine-2-carboxamide], the “Activity value (score)” value amounted to 1.

`CC1(C)CCN(C(=O)c2sc3nc(-c4cccnc4)ccc3c2N)c2ccccc21` [Example 41]: the “Activity value (score)” value was found to be 3. For `CC(C)=CCN(C(=O)c1ccc2nc(-c3cccnc3)ccc2c1N)c1ccccc1` [Example 42, 5-Amino-N-phenyl-N-prenyl-2-(pyridin-3-yl)quinoline-6-carboxamide] the value was 1.
